Reference: US9113629B2, “4-amino-6-(4-substituted-phenyl)-picolinates and 6-amino-2-(4-substituted-phenyl)-pyrimidine-4-carboxylates and their use as herbicides” (DOW AGROSCIENCES LLC, priority 2013, dated 2015)
Like-named read-outs stand apart in the source and are kept apart here.

Key:
[1] = system: Key Broadleaf Weed and Crop Species; assay: Post-emergent Test II herbicidal activity (Table 5); assay type: in vivo; details: post-emergence, 336 h, post-emergent, 14 days after application; for pest or weed control at 70 g/ha: 70 g ai/ha; for pest or weed control at 140 g/ha: 140 g ai/ha
Outline: (§1)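 Visual injury ratings (0 = no injury, 100 = complete kill) were taken 14 d after treatment, relative to untreated plants. Seedlings at the first–second true leaf stage received overhead spray at 187 L/ha; the highest rate was serially diluted to ½×, ¼×, ⅛× and 1/16×.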

[2] = system: Key Grass and Sedge Weeds as well as Grass Crops; assay: Post-emergent Test II herbicidal activity (Table 6); assay type: in vivo; details: post-emergence, 336 h; for pest or weed control at 70 g/ha: application rate 70 g ai/ha; for pest or weed control at 140 g/ha: application rate 140 g ai/ha
Outline: as §1

[3] = ABUTH: velvetleaf (Abutilon theophrasti), read-out: Visual Growth Reduction (%) 14 Days After Application ABUTH
[4] = AMARE: redroot pigweed (Amaranthus retroflexus), read-out: Visual Growth Reduction (%) 14 Days After Application AMARE
[5] = BRSNN: oilseed-rape, canola (Brassica napus), read-out: Visual Growth Reduction (%) 14 Days After Application BRSNN
[6] = CHEAL: lambsquarters (Chenopodium album), read-out: Visual Growth Reduction (%) 14 Days After Application CHEAL
[7] = EPHHL: wild poinsettia (Euphorbia heterophylla), read-out: Visual Growth Reduction (%) 14 Days After Application EPHHL
[8] = HELAN: sunflower (Helianthus annuus), read-out: Visual Growth Reduction (%) 14 Days After Application HELAN
[9] = VIOTR: wild pansy (Viola tricolor), read-out: Visual Growth Reduction (%) 14 Days After Application VIOTR
[10] = Triticum aestivum, TRZSS (wheat), read-out: Visual Growth Reduction (%) 14 Days After Application, TRZSS
[11] = CYPES: yellow nutsedge (Cyperus esculentus), read-out: Visual Growth Reduction (%) 14 Days After Application, CYPES
[12] = DIGSA: crabgrass (Digitaria sanguinalis), read-out: Visual Growth Reduction (%) 14 Days After Application, DIGSA
[13] = ECHCG: barnyardgrass (Echinochloa crus-galli), read-out: Visual Growth Reduction (%) 14 Days After Application, ECHCG
[14] = ORYSA: rice (Oryza sativa), read-out: Visual Growth Reduction (%) 14 Days After Application, ORYSA
[15] = SETFA: giant foxtail (Setaria faberi), read-out: Visual Growth Reduction (%) 14 Days After Application, SETFA
[16] = SORVU: grain sorghum (Sorghum vulgare), read-out: Visual Growth Reduction (%) 14 Days After Application, SORVU
[17] = ZEAMX: maize, corn (Zea mays), read-out: Visual Growth Reduction (%) 14 Days After Application, ZEAMX

Nc1c(F)c(-c2cc(F)c(Br)cc2F)nc(C(=O)O)c1Cl [Compound 42, 4-amino-6-(4-bromo-2,5-difluorophenyl)-3-chloro-5-fluoropicolinic acid]
85 to 94%: pest or weed control at 70 g/ha [1, 3] | pest or weed control at 140 g/ha [2, 12]
60 to 74%: pest or weed control at 70 g/ha [2, 10] | pest or weed control at 140 g/ha [2, 17]
30 to 44%: pest or weed control at 70 g/ha [2, 14] | pest or weed control at 140 g/ha [2, 14]
75 to 84%: pest or weed control at 140 g/ha [2, 10] | pest or weed control at 70 g/ha [2, 12] | pest or weed control at 70 g/ha [2, 17]
95 to 100%: pest or weed control at 140 g/ha [1, 3] | pest or weed control at 70 g/ha [1, 4] | pest or weed control at 140 g/ha [1, 4] | pest or weed control at 70 g/ha [1, 5] | pest or weed control at 140 g/ha [1, 5] | pest or weed control at 70 g/ha [1, 6] | pest or weed control at 140 g/ha [1, 6] | pest or weed control at 70 g/ha [1, 7] | pest or weed control at 140 g/ha [1, 7] | pest or weed control at 70 g/ha [1, 8] | pest or weed control at 140 g/ha [1, 8] | pest or weed control at 70 g/ha [1, 9] | pest or weed control at 140 g/ha [1, 9] | pest or weed control at 70 g/ha [2, 11] | pest or weed control at 140 g/ha [2, 11] | pest or weed control at 70 g/ha [2, 13] | pest or weed control at 140 g/ha [2, 13] | pest or weed control at 70 g/ha [2, 15] | pest or weed control at 140 g/ha [2, 15] | pest or weed control at 70 g/ha [2, 16] | pest or weed control at 140 g/ha [2, 16]

Nc1c(Cl)c(C(=O)O)nc(-c2ccc(Br)c(F)c2)c1Cl [Compound 43, 4-Amino-6-(4-bromo-3-fluorophenyl)-3,5-dichloropicolinic acid]
0 to 29%: pest or weed control at 70 g/ha [2, 14]
95 to 100%: pest or weed control at 70 g/ha [1, 4] | pest or weed control at 140 g/ha [1, 4] | pest or weed control at 70 g/ha [1, 5] | pest or weed control at 140 g/ha [1, 5] | pest or weed control at 70 g/ha [1, 8] | pest or weed control at 140 g/ha [1, 8] | pest or weed control at 70 g/ha [1, 9] | pest or weed control at 140 g/ha [1, 9] | pest or weed control at 70 g/ha [2, 11] | pest or weed control at 140 g/ha [2, 11] | pest or weed control at 70 g/ha [2, 16] | pest or weed control at 140 g/ha [2, 16]
85 to 94%: pest or weed control at 70 g/ha [1, 3] | pest or weed control at 140 g/ha [1, 3]
30 to 44%: pest or weed control at 140 g/ha [2, 14]
60 to 74%: pest or weed control at 70 g/ha [1, 7] | pest or weed control at 140 g/ha [1, 7] | pest or weed control at 70 g/ha [2, 10] | pest or weed control at 140 g/ha [2, 10] | pest or weed control at 140 g/ha [2, 13] | pest or weed control at 70 g/ha [2, 15] | pest or weed control at 140 g/ha [2, 15]
75 to 84%: pest or weed control at 70 g/ha [1, 6] | pest or weed control at 140 g/ha [1, 6] | pest or weed control at 70 g/ha [2, 12] | pest or weed control at 140 g/ha [2, 12] | pest or weed control at 70 g/ha [2, 13] | pest or weed control at 70 g/ha [2, 17] | pest or weed control at 140 g/ha [2, 17]
